Measurements as given in patent US9265253B2, “Use of macrocyclic picolinamides as fungicides” (DOW AGROSCIENCES LLC, priority 2013, dated 2016).

tested on: Glomerella lagenarium; Anamorph: Colletotrichum lagenarium; test: Cucumber Anthracnose (COLLLA) disease control; format: in vivo; conditions: Colletotrichum orbiculare, topical, 24 h, 1 Day Protectant, read-out: Disease Control COLLLA 1 DP
Experimental: Technical grades of materials were dissolved in acetone, which were then mixed with nine volumes of water containing 110 ppm Triton X-100. The fungicide solutions were applied onto wheat seedlings using an automated booth sprayer to run-off. All sprayed plants were allowed to air dry prior to further handling. All fungicides were evaluated using the aforementioned method for their activity vs. all target diseases. Wheat leaf blotch and brown rust activity were also evaluated using track spray applications, in which case the fungicides were formulated as EC formulations, containing 0.1% Trycol 5941 in the spray solutions. Wheat plants (variety Yuma) were grown from seed in a greenhouse in 50% mineral soil/50% soil-less Metro mix until the first leaf was fully emerged, with 7-10 seedlings per pot. These plants were inoculated with an aqueous spore suspension of Septoria tritici either prior to or after fungicide treatments. After inoculation the plants were kept in 100% relative humidity (one day in a dark dew chamber followed by two to three days in a lighted dew chamber at 20° C.) to permit spores to germinate and infect the leaf. The plants were then transferred to a greenhouse set at 20° C. for disease to develop. When disease symptoms were fully expressed on the 1st leaves of untreated plants, infection levels were assessed on a scale of 0 to 100 percent disease severity. Percent disease control was calculated using the ratio of disease severity on treated plants relative to untreated plants. Cucumber seedlings (variety Bush Pickle) were propagated in soil-less Metro mix, with each pot having one plant, and used in the test when 12 to 14 days old. Test plants were inoculated with an aqueous spore suspension of Colletotrichum lagenarium 24 hr after fungicide treatments. After inoculation the plants were kept in a dew room at 22° C. with 100% relative humidity for 48 hr to permit spores to germinate and infect the leaf. The plants were then transferred to a growth room set at 22° C. for disease to develop. Fungicide formulation, application and disease assessment on the sprayed leaves followed the procedures as described in the Example A.

Compound | pest or weed control at 100 ppm [%]
COc1ccnc(C(=O)N[C@H]2CCC[C@H](CC(F)F)[C@@H](Oc3ccccc3)[C@H](C)OC2=O)c1OC(C)=O [Compound F82] | 80 to 100
C=C[C@H]1CCC[C@H](NC(=O)c2nccc(OC)c2OC(C)=O)C(=O)O[C@@H](C)[C@@H]1Oc1ccccc1 [Compound F86] | 80 to 100
COc1ccc(C[C@H]2CCC[C@H](NC(=O)c3nccc(OC)c3OCOC(C)=O)C(=O)O[C@@H](C)[C@@H]2Oc2ccccc2)cc1 [Compound F114] | 80 to 100
CCOCC(=O)OCOc1c(OC)ccnc1C(=O)N[C@H]1CCC[C@H](Cc2ccc(F)cc2F)[C@@H](OC(=O)c2ccco2)[C@H](C)OC1=O [Compound F193] | 80 to 100
COc1ccnc(C(=O)N[C@H]2CCC[C@H](Cc3ccc(F)cc3)[C@@H](OCC(C)C)[C@H](C)OC2=O)c1OCOC(C)=O [Compound F102] | 80 to 100
COc1ccnc(C(=O)N[C@H]2CCC[C@H](Cc3ccc(F)cc3F)[C@@H](OC(=O)c3ccco3)[C@H](C)OC2=O)c1OCOC(C)=O [Compound F144] | 80 to 100
C=C[C@H]1CCC[C@H](NC(=O)c2nccc(OC)c2OCOC(C)=O)C(=O)O[C@@H](C)[C@@H]1Oc1ccccc1 [Compound F146] | 80 to 100
COc1ccnc(C(=O)N[C@H]2CCC[C@H](CCBr)[C@@H](Oc3ccccc3)[C@H](C)OC2=O)c1OC(C)=O [Compound F80] | 80 to 100

tested on: Erysiphe cichoracearum; test: Powdery Mildew of Cucumber (ERYSCI) disease control; format: in vivo; conditions: Golovinomyces cichoracearum, topical, 24 h, 1 Day Protectant, read-out: Disease Control ERYSCI 1 DP
Experimental: Technical grades of materials were dissolved in acetone, which were then mixed with nine volumes of water containing 110 ppm Triton X-100. The fungicide solutions were applied onto wheat seedlings using an automated booth sprayer to run-off. All sprayed plants were allowed to air dry prior to further handling. All fungicides were evaluated using the aforementioned method for their activity vs. all target diseases. Wheat leaf blotch and brown rust activity were also evaluated using track spray applications, in which case the fungicides were formulated as EC formulations, containing 0.1% Trycol 5941 in the spray solutions. Wheat plants (variety Yuma) were grown from seed in a greenhouse in 50% mineral soil/50% soil-less Metro mix until the first leaf was fully emerged, with 7-10 seedlings per pot. These plants were inoculated with an aqueous spore suspension of Septoria tritici either prior to or after fungicide treatments. After inoculation the plants were kept in 100% relative humidity (one day in a dark dew chamber followed by two to three days in a lighted dew chamber at 20° C.) to permit spores to germinate and infect the leaf. The plants were then transferred to a greenhouse set at 20° C. for disease to develop. When disease symptoms were fully expressed on the 1st leaves of untreated plants, infection levels were assessed on a scale of 0 to 100 percent disease severity. Percent disease control was calculated using the ratio of disease severity on treated plants relative to untreated plants. Cucumber seedlings (variety Bush Pickle) were grown in soil-less Metro mix, with one plant per pot, and used in the test when 12 to 14 days old. Plants were inoculated with a spore suspension 24 hr following fungicide treatments. After inoculation the plants remained in the greenhouse set at 20° C. until disease was fully expressed. Fungicide formulation, application and disease assessment on the sprayed leaves followed the procedures as described in the Example A.

Compound | pest or weed control at 100 ppm [%]
COc1ccnc(C(=O)N[C@H]2CCC[C@H](CC3CCCCC3)[C@@H](OCC(C)C)[C@H](C)OC2=O)c1OCOC(C)=O [Compound F113] | 80 to 100
CCOCC(=O)OCOc1c(OC)ccnc1C(=O)N[C@H]1CCC[C@H](CC2CCCCC2)[C@@H](OCC(C)C)[C@H](C)OC1=O [Compound F175] | 0 to 80
COc1ccnc(C(=O)N[C@H]2CCC[C@H](Cc3ccc(F)cc3F)[C@@H](OC(=O)c3ccco3)[C@H](C)OC2=O)c1OCOC(C)=O [Compound F144] | 0 to 80

tested on: Uncinula necator; test: Grape Powdery Mildew (UNCINE) disease control; format: in vivo; conditions: Erysiphe necator, topical, 24 h, 1 Day Protectant, read-out: Disease Control UNCINE 1 DP
Experimental: Technical grades of materials were dissolved in acetone, which were then mixed with nine volumes of water containing 110 ppm Triton X-100. The fungicide solutions were applied onto wheat seedlings using an automated booth sprayer to run-off. All sprayed plants were allowed to air dry prior to further handling. All fungicides were evaluated using the aforementioned method for their activity vs. all target diseases. Wheat leaf blotch and brown rust activity were also evaluated using track spray applications, in which case the fungicides were formulated as EC formulations, containing 0.1% Trycol 5941 in the spray solutions. Wheat plants (variety Yuma) were grown from seed in a greenhouse in 50% mineral soil/50% soil-less Metro mix until the first leaf was fully emerged, with 7-10 seedlings per pot. These plants were inoculated with an aqueous spore suspension of Septoria tritici either prior to or after fungicide treatments. After inoculation the plants were kept in 100% relative humidity (one day in a dark dew chamber followed by two to three days in a lighted dew chamber at 20° C.) to permit spores to germinate and infect the leaf. The plants were then transferred to a greenhouse set at 20° C. for disease to develop. When disease symptoms were fully expressed on the 1st leaves of untreated plants, infection levels were assessed on a scale of 0 to 100 percent disease severity. Percent disease control was calculated using the ratio of disease severity on treated plants relative to untreated plants. Grape seedlings (variety Carignane) were grown in soil-less Metro mix, with one plant per pot, and used in the test when approximately one month old. Plants were inoculated 24 hr after fungicide treatment by shaking spores from infected leaves over test plants. Plants were maintained in a greenhouse set at 20° C. until disease was fully developed. Fungicide formulation, application and disease assessment on the sprayed leaves followed the procedures as described in the Example A.

Compound | pest or weed control at 100 ppm [%]
COc1ccnc(C(=O)N[C@H]2CCC[C@H](CC3CCCCC3)[C@@H](OCC(C)C)[C@H](C)OC2=O)c1OCOC(C)=O [Compound F113] | 0 to 80
CCOCC(=O)OCOc1c(OC)ccnc1C(=O)N[C@H]1CCC[C@H](CC2CCCCC2)[C@@H](OCC(C)C)[C@H](C)OC1=O [Compound F175] | 0 to 80
COc1ccnc(C(=O)N[C@H]2CCC[C@H](Cc3ccccc3)[C@@H](OC3CCCC3)[C@H](C)OC2=O)c1OCOC(C)=O [Compound F110] | 80 to 100
COc1ccnc(C(=O)N[C@H]2CCC[C@H](CC(F)F)[C@@H](Oc3ccccc3)[C@H](C)OC2=O)c1OC(C)=O [Compound F82] | 0 to 80
C=C[C@H]1CCC[C@H](NC(=O)c2nccc(OC)c2OC(C)=O)C(=O)O[C@@H](C)[C@@H]1Oc1ccccc1 [Compound F86] | 80 to 100
CCOCC(=O)OCOc1c(OC)ccnc1C(=O)N[C@H]1CCC[C@H](Cc2ccc(F)cc2F)[C@@H](OC(=O)c2ccco2)[C@H](C)OC1=O [Compound F193] | 0 to 80
COc1ccnc(C(=O)N[C@H]2CCC[C@H](Cc3ccc(F)cc3)[C@@H](OCC(C)C)[C@H](C)OC2=O)c1OCOC(C)=O [Compound F102] | 0 to 80
COc1ccnc(C(=O)N[C@H]2CCC[C@H](Cc3ccc(F)cc3F)[C@@H](OC(=O)c3ccco3)[C@H](C)OC2=O)c1OCOC(C)=O [Compound F144] | 0 to 80
C=C[C@H]1CCC[C@H](NC(=O)c2nccc(OC)c2OCOC(C)=O)C(=O)O[C@@H](C)[C@@H]1Oc1ccccc1 [Compound F146] | 80 to 100
COc1ccnc(C(=O)N[C@H]2CCC[C@H](CCBr)[C@@H](Oc3ccccc3)[C@H](C)OC2=O)c1OC(C)=O [Compound F80] | 0 to 80

tested on: Blumeria graminis f. sp. hordei; Synonym: Erysiphe graminis f. sp. hordei; test: Barley Powdery Mildew (ERYSGH) disease control; format: in vivo; conditions: Blumeria graminis, 24 h, 1 Day Protectant, read-out: Disease Control ERYSGH 1 DP
Experimental: Technical grades of materials were dissolved in acetone, which were then mixed with nine volumes of water containing 110 ppm Triton X-100. The fungicide solutions were applied onto wheat seedlings using an automated booth sprayer to run-off. All sprayed plants were allowed to air dry prior to further handling. All fungicides were evaluated using the aforementioned method for their activity vs. all target diseases. Wheat leaf blotch and brown rust activity were also evaluated using track spray applications, in which case the fungicides were formulated as EC formulations, containing 0.1% Trycol 5941 in the spray solutions. Wheat plants (variety Yuma) were grown from seed in a greenhouse in 50% mineral soil/50% soil-less Metro mix until the first leaf was fully emerged, with 7-10 seedlings per pot. These plants were inoculated with an aqueous spore suspension of Septoria tritici either prior to or after fungicide treatments. After inoculation the plants were kept in 100% relative humidity (one day in a dark dew chamber followed by two to three days in a lighted dew chamber at 20° C.) to permit spores to germinate and infect the leaf. The plants were then transferred to a greenhouse set at 20° C. for disease to develop. When disease symptoms were fully expressed on the 1st leaves of untreated plants, infection levels were assessed on a scale of 0 to 100 percent disease severity. Percent disease control was calculated using the ratio of disease severity on treated plants relative to untreated plants. Barley seedlings (variety Harrington) were propagated in soil-less Metro mix, with each pot having 8 to 12 plants, and used in the test when first leaf was fully emerged. Test plants were inoculated by dusting with infected stock plants 24 hr after fungicide treatments. After inoculation the plants were kept in a greenhouse set at 20° C. for disease to develop. Fungicide formulation, application and disease assessment on the sprayed leaves followed the procedures as described in the Example A.

Compound | pest or weed control at 100 ppm [%]
COc1ccnc(C(=O)N[C@H]2CCC[C@H](CC3CCCCC3)[C@@H](OCC(C)C)[C@H](C)OC2=O)c1OCOC(C)=O [Compound F113] | 80 to 100
CCOCC(=O)OCOc1c(OC)ccnc1C(=O)N[C@H]1CCC[C@H](CC2CCCCC2)[C@@H](OCC(C)C)[C@H](C)OC1=O [Compound F175] | 80 to 100
COc1ccnc(C(=O)N[C@H]2CCC[C@H](Cc3ccccc3)[C@@H](OC3CCCC3)[C@H](C)OC2=O)c1OCOC(C)=O [Compound F110] | 80 to 100
COc1ccnc(C(=O)N[C@H]2CCC[C@H](CC(F)F)[C@@H](Oc3ccccc3)[C@H](C)OC2=O)c1OC(C)=O [Compound F82] | 0 to 80
C=C[C@H]1CCC[C@H](NC(=O)c2nccc(OC)c2OC(C)=O)C(=O)O[C@@H](C)[C@@H]1Oc1ccccc1 [Compound F86] | 0 to 80
CCOCC(=O)OCOc1c(OC)ccnc1C(=O)N[C@H]1CCC[C@H](Cc2ccc(F)cc2F)[C@@H](OC(=O)c2ccco2)[C@H](C)OC1=O [Compound F193] | 0 to 80
COc1ccnc(C(=O)N[C@H]2CCC[C@H](Cc3ccc(F)cc3)[C@@H](OCC(C)C)[C@H](C)OC2=O)c1OCOC(C)=O [Compound F102] | 0 to 80
C=C[C@H]1CCC[C@H](NC(=O)c2nccc(OC)c2OCOC(C)=O)C(=O)O[C@@H](C)[C@@H]1Oc1ccccc1 [Compound F146] | 0 to 80
COc1ccnc(C(=O)N[C@H]2CCC[C@H](CCBr)[C@@H](Oc3ccccc3)[C@H](C)OC2=O)c1OC(C)=O [Compound F80] | 0 to 80
